2 molecules from paper PMC7002685, “Inhibition of vascular calcification by inositol phosphates derivatized with ethylene glycol oligomers” (Nature Communications, 2020) can be followed below.

Where “and” joins values, the source holds several entries; their conditions need not be identical. Equal entries are not always repeated.

Experiment [1] concerns CPPs. Briefly: DLS of CPP hydrodynamic diameter in human serum. More on the design: Dh: unit not given here. The protocol:
To confirm the screening assay data, the hydrodynamic diameter of the CPPs was measured by dynamic light scattering (DLS).
Human serum studies were performed under sterile conditions at 37 °C as described previously. […] For serum background measurements, saline, human serum, and 100 mM HBS (pH 7.4 (RT)) were combined in a volume ratio of 2:8:10. […] The mixtures were incubated with continual slow mixing on a rotator (240 rotations/min, IKA KS 130 Basics Orbital Shaker) at 37 °C. After 1, 3, and 5 h of incubation, 500 µL aliquots were drawn under sterile conditions to prevent microorganism growth contamination and subjected to DLS analysis at 37 °C. For each experiment, three replicates were produced and a single measurement per sample and time point was performed.

The subject of experiment [2] is primary human VSMCs. Briefly: CPP2-induced VSMC calcification. It counts as cell-based. The settings on record: for VSMC calcium deposition, % of CPP2 control: CPP2 50 µg Ca/mL. The protocol: Macrophage accumulation and inflammation coincide with the initial phase of calcification. To this end, VSMCs and THP-1-derived macrophages were exposed to CPP2-supplemented medium. CPP2 prepared from human serum as described previously[61] (Supplementary Figs. 6 and 7), induced a pronounced VSMC monolayer calcification after 48 h, which was decreased by (OEG2)2-IP4 in a dose-dependent fashion, and the effect became significant at 10 µM (Fig. 3e). […] Both H2O2 (proxy for oxidative stress) and tumor necrosis factor-alpha (TNF-α) (proxy for inflammatory response) levels were assayed in the VSMC culture supernatants subsequent to CPP2 treatment with and without compounds[30]. However, no increase in H2O2 nor TNF-α compared to control could be detected in either assay. For the CPP-induced VSMC calcification assay (Fig. 3e) a roughly 10-fold higher concentration of (OEG2)2-IP4 was necessary to achieve similar activity as in the CaP-induced VSMC calcification assay (Fig. 3b). […] In the CaP assay, low inhibitor concentration may be sufficient to inhibit crystal nucleation, whereas for the CPP assay higher inhibitor concentrations may be needed to achieve sufficient particle stabilization by chemisorption of inhibitor onto CPPs. Similar results have been reported for hydrogen sulfide in the context of VC[62],[64]. […] An increase in the TNFα levels in the cell culture supernatants was not observed for (OEG2)2-IP4 with (Fig. 3h) and without (Supplementary Fig. 10) combined CPP2 treatment.
Primary human VSMCs (C-12533, PromoCell, Heidelberg, Germany) were cultured according to the manufacturer's guidelines in SMC-2 culture medium (C-22062, PromoCell) and used up to passage 7. For calcification experiments cells were seeded onto 24-well plates (TPP) at a density of 20,000 cells/well and left to attach for 48–72 h. Complete medium was M199 medium (31150022, Thermo Fischer Scientific), supplemented with 10% v/v FBS (10270106, Thermo Fisher Scientific, Waltham, MA), 1% v/v penicillin/streptomycin (15140122, Thermo Fisher Scientific), and 4 mM L-glutamine (25030024, Thermo Fisher Scientific)[80]. Calcification of cell monolayers was induced as described previously[81] by treatment with CPP2-supplemented (50 µg Ca/mL) medium with or without test compounds (1, 3, 10, 30, and 100 µM) at a volume of 1 mL/well for 48 h at 37 °C, 5% CO2. In a second assay, calcification was induced similar to previous experiments[56] by cell treatment with or without test compounds (0.01, 0.1, 1, 10, and 100 µM) in complete medium supplemented with calcium (2.7 mM) and phosphate (2.5 mM) (CaP medium) at a volume of 1 mL/well for 5 days, and treatment medium was replaced on alternate days.
Calcium deposition on cell monolayers was assessed qualitatively by staining for calcium with 2% w/v Alizarin Red S aqueous solution (pH 4.2) (05600, Fluka Analytical). Cell monolayers in 24-well plates were washed with PBS (10010015, Thermo Fischer), fixed in 10% v/v NBF in PBS (F8775, Sigma-Aldrich) for 45 min at RT, washed with milli-Q water, incubated for 3 min with 300 µL Alizarin Red S solution, washed with milli-Q, and images were acquired using a Axiovert 35 microscope (Zeiss, Carl Zeiss Microscopy GmbH, Jena, Germany) at ×100 magnification. Calcium quantitation was performed after washing cells with PBS and then decalcifying cell monolayers with 0.1 M HCl overnight at 4 °C. Acidic supernatants were centrifuged (10,000 × g, 4 °C, 10 min) and calcium content was assessed using the calcium colorimetric assay.

[3] abbreviates: Supl.Fig.4 panel b, time 1 (unit not given).

Take `O=P(O)(O)O[C@H]1[C@H](OP(=O)(O)O)[C@@H](OP(=O)(O)O)[C@H](OP(=O)(O)O)[C@@H](OP(=O)(O)O)[C@H]1OP(=O)(O)O` [IP6, myo-Inositol hexakisphosphate]: the Dh in experiment [1] (setting [3]) was 88.6 and 105.8 and 120.4; in experiment [1] (Supl.Fig.4 panel b, time 3) it was 117.9 and 117.1 and 132.1; in experiment [1] (Supl.Fig.4 panel b, time 5), 120.1 and 126.7 and 139.4; in experiment [1] (Supl.Fig.4 panel d, time 1), 134.2 and 137.5 and 124.1; in experiment [1] (Supl.Fig.4 panel d, time 5), 829.4 and 949 and 968.9; in experiment [1] (Supl.Fig.4 panel e, time 1), 121.9 and 131.6 and 127.5. The Dh in experiment [1] (Supl.Fig.4 panel e, time 3) was 917.4 and 1163.2 and 967.1; in experiment [1] (Supl.Fig.4 panel e, time 5) it was 1239.9 and 912.5 and 1030.4; in experiment [1] (Supl.Fig.4 panel f, time 1), 151.1 and 134.7 and 128.6; in experiment [1] (Supl.Fig.4 panel f, time 3), 1215.5 and 1246.8 and 894.9; in experiment [1] (Supl.Fig.4 panel f, time 5) it was 938.5 and 1174.7 and 1102.1; in experiment [1] (Supl.Fig.4 panel g, time 1), 161.6 and 144.6 and 111.2. Also, the Dh is 140.9 and 155.6 and 124.7 in experiment [1] (Supl.Fig.4 panel h, time 1); 698.6 and 1132.6 and 867.3 in experiment [1] (Supl.Fig.4 panel h, time 5); 144.5 and 156.7 and 136.9 in experiment [1] (Supl.Fig.4 panel i, time 1); 161.1 and 174.2 and 140.3 in experiment [1] (Supl.Fig.4 panel i, time 3); 832.1 and 1065.7 and 818.8 in experiment [1] (Supl.Fig.4 panel i, time 5). For the same molecule, the PDI in experiment [1] (setting [3]) is 0.387 and 0.354 and 0.351; in experiment [1] (Supl.Fig.4 panel b, time 3), 0.358 and 0.359; in experiment [1] (Supl.Fig.4 panel b, time 5) it was 0.352 and 0.371 and 0.353; in experiment [1] (Supl.Fig.4 panel d, time 1), 0.243 and 0.215 and 0.244; in experiment [1] (Supl.Fig.4 panel d, time 3) it was 0.263 and 0.405 and 0.247; in experiment [1] (Supl.Fig.4 panel d, time 5), 0.375 and 0.401 and 0.371. Also, the PDI in experiment [1] (Supl.Fig.4 panel e, time 1) was 0.239 and 0.253 and 0.225; in experiment [1] (Supl.Fig.4 panel e, time 3), 0.279 and 0.365 and 0.211; in experiment [1] (Supl.Fig.4 panel e, time 5), 0.335 and 0.413 and 0.307; in experiment [1] (Supl.Fig.4 panel f, time 1), 0.231 and 0.246 and 0.242; in experiment [1] (Supl.Fig.4 panel f, time 5), 0.341 and 0.349 and 0.237; in experiment [1] (Supl.Fig.4 panel g, time 1), 0.205 and 0.233 and 0.237. The PDI in experiment [1] (Supl.Fig.4 panel g, time 3) is 0.21 and 0.2 and 0.256; in experiment [1] (Supl.Fig.4 panel g, time 5), 0.256 and 0.391 and 0.263; in experiment [1] (Supl.Fig.4 panel h, time 1), 0.242 and 0.211 and 0.261; in experiment [1] (Supl.Fig.4 panel h, time 3) it was 0.224 and 0.271 and 0.403; in experiment [1] (Supl.Fig.4 panel h, time 5), 0.295 and 0.332 and 0.35; in experiment [1] (Supl.Fig.4 panel i, time 1) it was 0.23 and 0.222 and 0.25. Besides, the PDI in experiment [1] (Supl.Fig.4 panel i, time 3) was 0.256 and 0.273 and 0.247; in experiment [1] (Supl.Fig.4 panel i, time 5), 0.38 and 0.379 and 0.375. Besides, the “VSMC calcium deposition, % of CPP2 control” value in experiment [2] (1 µM, 48 h, replicates Fig. 3e) is 77.8896% and 82.8838% and 86.0538% and 91.73%; in experiment [2] (3 µM, 48 h), 95.5105% and 90.2183% and 79.3785% and 87.2842%; in experiment [2] (10 µM, 48 h), 37.8415%; in experiment [2] (30 µM, 48 h), 57.6847% and 47.1535% and 71.7458% and 75.8811%; in experiment [2] (100 µM, 48 h), 79.2544% and 65.4345% and 85.4719%.
For the molecule `COCCOCCO[C@@H]1[C@@H](OP(=O)(O)O)[C@H](OCCOCCOC)[C@@H](OP(=O)(O)O)[C@@H](OP(=O)(O)O)[C@H]1OP(=O)(O)O` [(OEG2)2-IP4, 4,6-Di-O-(methoxy-diethyleneglycol)-myo-inositol-1,2,3,5-tetrakis(phosphate)], the “CPP particle growth (DLS)” value in experiment [1] (added to CPP1s at a final concentration of 30 µM) is “stabilized particle growth”. Moreover, the “fold higher concentration necessary in CPP-induced vs CaP-induced VSMC calcification assay” value in experiment [2] is “roughly 10 fold”. In addition, the “VSMC calcium deposition, % of CPP2 control” value in experiment [2] (1 µM, 48 h, replicates Fig. 3e) is 88.4113% and 80.5453% and 68.3456% and 69.0785%; in experiment [2] (3 µM, 48 h), 92.4907% and 73.6279% and 53.9051% and 56.3804%. Also, in experiment [2] (48 h), the “concentration at which decrease of CPP2-induced calcification became significant” value amounted to 10 µM.
